Like-named read-outs stand apart in the source and are kept apart here.
Assays:
[1] = molecular target: T1, Cyclooxygenase-1 (COX-1) (Ovis aries, UniProt P05979); assay: COX-1 inhibition, COX Inhibitor Screening Assay Kit (PGF2α production, ELISA); assay type: biochemical; conditions: compound 50 μM
T1 construct: purchased Cayman Chemical Company 560101
T1 sequence (P05979 25-600): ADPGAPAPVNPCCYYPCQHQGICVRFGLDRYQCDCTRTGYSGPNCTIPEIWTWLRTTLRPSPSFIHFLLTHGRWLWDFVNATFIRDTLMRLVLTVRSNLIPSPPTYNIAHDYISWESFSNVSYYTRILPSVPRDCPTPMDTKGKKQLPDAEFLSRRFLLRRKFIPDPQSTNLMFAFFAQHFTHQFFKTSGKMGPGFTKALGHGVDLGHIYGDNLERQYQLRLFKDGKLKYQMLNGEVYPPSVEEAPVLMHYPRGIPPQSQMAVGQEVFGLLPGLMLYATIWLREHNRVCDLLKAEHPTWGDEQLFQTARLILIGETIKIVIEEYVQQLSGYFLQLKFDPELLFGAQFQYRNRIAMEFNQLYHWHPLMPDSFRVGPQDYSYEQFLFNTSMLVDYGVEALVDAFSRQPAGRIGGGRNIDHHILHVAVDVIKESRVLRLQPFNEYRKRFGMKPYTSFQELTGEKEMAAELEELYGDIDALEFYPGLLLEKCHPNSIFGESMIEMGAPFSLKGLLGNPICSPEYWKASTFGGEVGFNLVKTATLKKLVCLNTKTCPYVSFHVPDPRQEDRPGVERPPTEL
Excerpt: (§1) For the measurement of the inhibitory activity of the compounds obtained in the Examples against COX-1 and COX-2, a COX Inhibitor Screening Assay Kit manufactured by Cayman Chemical Company (Catalog Nos. 560101 and 560121) was used.
(§2) Before starting the measurement, a reaction buffer, heme, arachidonic acid, SnCl2, EIA buffer, a washing buffer, prostaglandin (PG)-screening EIA standard solution, PG-screening acetylcholinesterase (AchE), a tracer […], and PG-screening EIA antiserum were provided.
A reaction solution containing a compound of the Examples (50 μM) and COX-1, or a reaction solution containing a compound of the Examples (300 μM) and COX-2 was allowed to stand at 37° C. for 10 minutes, then 10 μl of arachidonic acid was added thereto, and the resultant mixture was allowed to stand at 37° C. for 2 minutes. After the reaction, 50 μl of 1 N hydrochloric acid was added to the reaction mixture to stop the reaction, and 100 μl of a SnCl2 solution was added thereto. The resultant mixture was allowed to stand at room temperature for 5 minutes.
50 μl of antiserum (rabbit anti-PGF2α antibody) was added to each well of a 96-well plate coated with mouse anti-rabbit IgG. Then, 50 μl of a solution prepared by diluting the reaction solution for PGF2α production to 2000-folds, and 50 μl of an AchE tracer were added sequentially to the wells, and the plate was kept at room temperature for 18 hours. Each well washed 5 times with the washing buffer to remove excessive AchE tracer, and then 200 μl of Ellman reagent was added to each well. The plate was kept in the dark room for 60 minutes, and then, absorbance at 405 nm was measured.
A standard curve was produced using a PG-screening EIA standard solution, and the amount of PGF2α production was determined from the absorbance obtained as described above. The COX-1 inhibition rate at 50 μM of the compound of the Examples, and the COX-2 inhibition rate at 300 μM of the compound of the Examples were calculated.

[2] = test system: collagen-induced platelet aggregation; assay: Platelet aggregation suppressing effect (collagen-induced aggregation in platelet rich plasma); assay type: cell-based; conditions: human PRP, 37° C., collagen as inducer, read-out: Inhibitory effect of collagen-induced platelet aggregation IC50
Procedure: Human blood was collected using 3.13% sodium citrate in a volume 1/10 of the blood volume, as an anticoagulant. The collected blood was centrifuged at 180 g for 10 minutes to separate platelet rich plasma (PRP) from the blood. After collecting the PRP fraction in the upper layer, the lower layer was further centrifuged at 1600 g for 10 minutes to fractionate platelet poor plasma (PPP) in the upper layer. One μl of a solution of a compound obtained in the Examples was added to 200 μl of PRP, and the mixture was allowed to stand at 37° C. for 2 minutes. Subsequently, 2 μl of collagen was added thereto, so as to induce platelet aggregation. The platelet aggregation rate was measured using PAM-12C(SSR Engineering, Inc.).

[3] = molecular target: T2, Cyclooxygenase-2 (COX-2) (Homo sapiens, UniProt P35354); assay: COX-2 inhibition, COX Inhibitor Screening Assay Kit (PGF2α production, ELISA); assay type: biochemical; conditions: compound 300 μM
T2 construct: purchased Cayman Chemical Company 560121
T2 sequence (P35354 18-604): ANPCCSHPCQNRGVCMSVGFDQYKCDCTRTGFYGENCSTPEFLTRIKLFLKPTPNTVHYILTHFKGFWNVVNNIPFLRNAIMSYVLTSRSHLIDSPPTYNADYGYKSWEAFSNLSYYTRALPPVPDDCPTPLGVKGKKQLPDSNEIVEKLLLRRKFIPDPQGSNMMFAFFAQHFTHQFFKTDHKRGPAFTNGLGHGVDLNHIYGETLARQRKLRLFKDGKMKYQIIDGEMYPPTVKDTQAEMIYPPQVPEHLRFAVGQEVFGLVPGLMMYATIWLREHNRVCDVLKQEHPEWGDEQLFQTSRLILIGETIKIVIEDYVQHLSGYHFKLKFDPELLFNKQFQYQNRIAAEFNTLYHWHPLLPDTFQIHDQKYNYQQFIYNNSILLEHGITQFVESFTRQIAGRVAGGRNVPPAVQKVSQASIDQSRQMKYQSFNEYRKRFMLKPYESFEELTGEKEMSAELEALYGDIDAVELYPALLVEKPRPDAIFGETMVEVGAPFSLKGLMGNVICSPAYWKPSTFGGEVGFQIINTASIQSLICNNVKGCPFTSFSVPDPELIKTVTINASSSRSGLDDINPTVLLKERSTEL
Excerpt: as §1, §2
A reaction solution containing a compound of the Examples (50 μM) and COX-1, or a reaction solution containing a compound of the Examples (300 μM) and COX-2 was allowed to stand at 37° C. for 10 minutes, then 10 μl of arachidonic acid was added thereto, and the resultant mixture was allowed to stand at 37° C. for 2 minutes. […]
50 μl of antiserum (rabbit anti-PGF2α antibody) was added to each well of a 96-well plate coated with mouse anti-rabbit IgG. […] The plate was kept in the dark room for 60 minutes, and then, absorbance at 405 nm was measured.
A standard curve was produced using a PG-screening EIA standard solution, and the amount of PGF2α production was determined from the absorbance obtained as described above. […]

[4] = test system: collagen-induced platelet aggregation; conditions: background art, cited from earlier work

SMILES	COX-1 inhibitory action at 50 μM (% inhibition) [1] [% inhibition]	IC50 [2] [nM]	COX-2 inhibitory action at 300 μM (% inhibition) [3] [% inhibition]	IC50 ([4]; read-out: IC50 value against collagen-induced platelet aggregation) [nM]	platelet aggregation inhibitory action compared with inhibitory activity against COX-2 [4]
COc1ccc(-n2nc(C(=O)N3CCOCC3)cc2-c2cc[nH]n2)cn1 [Example 33, 4-[1-(6-Methoxy-3-pyridyl)-5-(1H-pyrazol-3-yl)-1H-pyrazole-3-carbonyl]morpholine]	−9.5	97	–	–	–
COc1ccc(-n2nc(C(=O)N3CCCC(OC)C3)cc2-c2ccccn2)cn1 (stereo not shown) [Example 34, 1-[1-(6-Methoxy-3-pyridyl)-5-(2-pyridyl)-1H-pyrazole-3-carbonyl]-3-methoxypiperidine]	−18.4	63	–	–	–
COc1ccc(-n2nc(C(=O)N3CCN(C)C(=O)C3)cc2-c2ccn(C)n2)cn1 [Example 36, 1-[1-(6-Methoxy-3-pyridyl)-5 (1-methyl-1H-pyrazol-3-yl)-1H-pyrazole-3-carbonyl]-4-methyl-3-oxopiperazine]	1.2	370	–	–	–
COc1ccc(-n2nc(C(=O)N3CCOCC3)cc2-c2cc[nH]c2)nn1 [Example 41, 1-[1-(6-Methoxy-3-pyridazinyl)-5-(1H-pyrrol-3-yl)-1H-pyrazole-3-carbonyl]morpholine]	−21.3	170	–	–	–
COc1ccc(-n2nc(C(=O)N3CCC(OC)CC3)cc2-c2cn(C)cn2)cn1 [Example 73, 1-[1-(6-Methoxy-3-pyridyl)-5-(1-methyl-1H-imidazol-4-yl)-1H-pyrazole-3-carbonyl]-4-methoxypiperidine]	5.9	150	15.5	–	–
COc1ccc(-n2nc(C(=O)N3CCOC[C@@H]3C)cc2-c2ccccn2)nn1 [Example 105, (+)(3S)-4-[1-(6-Methoxypyridazin-3-yl)-5-(2-pyridyl)-1H-pyrazole-3-carbonyl]-3-methylmorpholine]	−9.6	440	–	–	–
COc1ccc(-n2nc(C(=O)N3CCOC[C@H]3C)cc2-c2ccccn2)nn1 [Example 107, (−)(3R)-4-[1-(6-Methoxypyridazin-3-yl)-5-(2-pyridyl)-1H-pyrazole-3-carbonyl]-3-methylmorpholine]	−3.9	430	–	–	–
COc1ccc(-n2nc(C(=O)N3CCOCC3)cc2-c2cnn(C)c2)cn1 [Example 115, 4-[1-(6-Methoxy-3-pyridyl)-5-(1-methyl-1H-pyrazol-4-yl)-1H-pyrazole-3-carbonyl]morpholine]	−21.2	110	23.4	–	–
COc1ccc(-n2nc(C(=O)N3CCOCC3)cc2-c2cscn2)cn1 [Example 118, 4-[1-(6-Methoxy-3-pyridyl)-5-(thiazol-4-yl)-1H-pyrazole-3-carbonyl]morpholine]	−12.7	79	–	–	–
COc1ccc(-n2nc(C(=O)N3CCC(OC)CC3)cc2-c2cnn(C)c2)cn1 [Example 119, 1-[1-(6-Methoxy-3-pyridyl)-5-(1-methyl-1H-pyrazol-4-yl)-1H-pyrazole-3-carbonyl]-4-methoxypiperidine]	13.0	160	–	–	–
COc1ccc(-n2nc(C(=O)N3CCN(C)C(=O)C3)cc2-c2cnn(C)c2)cn1 [Example 121, 1-[1-(6-Methoxy-3-pyridyl)-5-(1-methyl-1H-pyrazol-4-yl)-1H-pyrazole-3-carbonyl]-4-methyl-3-oxopiperazine]	−0.7	710	–	–	–
COc1ccc(-n2nc(C(=O)N3CCN(C)C(=O)C3)cc2-c2ccn(C)c2)nn1 [Example 124, 1-[1-(6-Methoxy-3-pyridazinyl)-5-(1-methyl-1H-pyrrol-3-yl)-1H-pyrazole-3-carbonyl]-4-methyl-3-oxopiperazine]	8.3	440	–	–	–
COc1ccc(-n2nc(C(=O)N3CCN(C)C(=O)C3)cc2-c2cscn2)cn1 [Example 126, 1-[1-(6-Methoxy-3-pyridyl)-5-(thiazol-4-yl)-1H-pyrazole-3-carbonyl]-4-methyl-3-oxopiperazine]	−6.4	360	–	–	–
COc1ccc(-n2nc(C(=O)N3CCN(C)CC3)cc2-c2cscn2)cn1 [Example 127, 1-[1-(6-Methoxy-3-pyridyl)-5-(thiazol-4-yl)-1H-pyrazole-3-carbonyl]-4-methylpiperazine]	−21.2	230	–	–	–
COc1ccc(-n2nc(C(=O)N3CCC(F)(F)CC3)cc2-c2cnn(C)c2)nn1 [Example 141, 1-[1-(6-Methoxy-3-pyridazinyl)-5-(1-methyl-1H-pyrazol-4-yl)-1H-pyrazole-3-carbonyl]-4,4-difluoropiperidine]	24.4	190	–	–	–
CS(=O)(=O)c1ccc(-c2cc(C#N)nn2-c2ccc(F)cc2)cc1 [compound (A)]	–	–	–	5300	–
COc1ccc(-c2cc(C(F)F)nn2-c2ccc(S(N)(=O)=O)cc2)cc1F [compound (B)]	–	–	–	–	not as strong as the inhibitory activity of the compound against COX-2

From patent US20070254881A1, “Pyrazole Derivative” (DAIICHI PHARMACEUTICAL CO., LTD., priority 2004, published 2007)
